For 16 compounds, IC50 and MNT results are on record in US20240009175A9, “TETRAZOLE DERIVATIVES” (Merck Patent GmbH, priority 2020, published 2024).

Structures are written as SMILES.

One series concerns the target human rec ACSS2 (Homo sapiens (Human), UniProt Q9NR19). Put plainly: Biochemical activity ACSS2 assay (AMP-Glo). The settings on record: human recombinant ACSS2, AMP-Glo, 180 min at 37° C. The text has this: Biochemical Activity ACSS2 Assay (IC50 ACSS2 Biochemical)
The biochemical activity assay for ACSS2 is based on the detection of released AMP by AMP-Glo™ Assay kit (Promega, Madison). The assay is run in three steps: the enzymatic reaction in which human rec ACSS2 activates acetate with ATP and Coenzyme A as cosubstrates to acetyl-CoA thereby releasing AMP and the detection reaction of AMP by AMP Glo assay in which after the destruction of the residual ATP with AMP Glo reagent 1 produced AMP is converted to ATP that is measured in a luciferase assay system (detection reagent). The ACSS2 activity correlates with the detected luminescence signal.
The assay was performed in Perkin Elmer 384 well white Proxiplates in a total volume of 8 μl.
1 nM (fc)C-term myc tagged ACSS2 (human, recombinant, Origene, Rockville, US) and a mixture of 100 μM (fc) ATP, 100 μM (fc) Coenzyme A and 500 μM (fc) sodium acetate were incubated in a total volume of 5 μl (50 mM Hepes, 1 mM Mg-chloride, 150 mM NaCl, 1 mM DTT, 0.01% (w/v) BSA, 0.3% DMSO, pH 7.5) in the absence or presence of the test compound (10 dilution concentrations, start conc 30 μM) for 180 min at 37° C. The reaction was stopped and residual ATP destroyed by the addition of 1 μl AMP Glo reagent solution (Promega, Madison, US). After 1h incubation at room temperature 2 μl of AMP Glo detection reagent was added and the assay was incubated for 0.75 hr at room temperature. The luminescence signal was measured with an Envision multimode reader (Perkin Elmer LAS Germany GmbH) at 700 nm in luminescence mode. The full value used was the inhibitor-free reaction. The pharmacological zero value was generated by addition of ACSS2 inhibitor (Ac-CoA Synthase Inhibitor—CAS 508186-14-9-Calbiochem) in a final concentration of 5 μM. The inhibitory values (IC50) were determined using the program Assay Analyzer® from GeneData.

Another series concerns the target ACSS2 (Homo sapiens (Human), UniProt Q9NR19). Put plainly: Cellular assay of 14C acetate incorporation into histones (IC50 ACSS2 cellular histone). It is filed as cell-based. The settings on record: HCT-15 cells. The source says: Cellular Assay of ^14C Acetate Incorporation into Histones (IC50 ACSS2 Cellular Histone)
This protocol describes a cellular assay capable to quantify endogenous histone acetylation activity in the human HCT-15 cancer cell line following the incorporation of extracellularly administered radiolabeled ^14C acetate with a scintillation based read out on acid extracted histones.
HCT-15 cells are trypsinized, washed and suspended in DMEM culture medium supplemented with penicillin/streptomycin (100 U/mL), sodium pyruvate (1 mM), and 10% FBS
Compounds serial dilutions are prepared in 96-well V-bottom microplate from 10 mM stock solutions in DMSO. From these dilutions 0.5 μl are transferred to a fresh plate including pure DMSO as negative control. The dilutions are prepared such, that the final concentration in the assay is 1/400 of the concentration in the serial dilution. The final DMSO concentration in the assay is 0.25%.
The cell suspension is seeded at densities of 2×10^5 cells per 170 μl into individual wells of a 96 well plate each containing 0.5 μl aliquots of compound serial dilutions and are kept for 1 h in a cell incubator. To each well 30 μL of a mixture containing 0.5 mCi/mL of ^14C-acetate with full medium are added. Then, the wells are incubated for 3 hrs in the cell incubator.
Further steps of the procedure should be conducted on ice or instrumentations precooled to 4° C. Cells are sedimented in the 96-well V-bottom microplate by centrifugation (Eppendorf 5804 R) at 1200 rpm for 5 min. The supernatant is removed and the cells are washed twice with 200 μL of PBS-NaB (5 mM sodium butyrate) buffer by iterative resuspension and centrifugation. Finally, the cells are resuspended in 50 μL of TEB (PBS-NaB+0.5% Triton X-100) and left on ice for 10 minutes. After centrifugation at 2300 rpm for 10 minutes at 4° C. the supernatant is removed, the remaining pellet is suspended in 50 μL of 0.2M HCl and incubated over night at 4° C. After incubation the well plate is shaken for 2 minutes in a MTP plate shaker set to 1200 rpm and then centrifuged at 3700 rpm for 10 mins. The lysate is carefully aspirated (˜43 μL) and transferred into a white MTP plate (Greiner bio-one 65509). 90 μL of Ultima Gold XR scintillation cocktail are added and the plates are sealed with a transparent cover tape before mixing vigorously using plate shaker set to 1200 rpm. Radioactivity from ^14C incorporation in the wells is measured as CPM count in a MicroBeta Trilux luminescence counter.

Another series relates to CHO-K1 cells. Put plainly: Micronucleus assay (MNT) in vitro. Further details: key: A: negative, putative negative (micronuclei detected beyond threshold of 60% cyctotoxicity); B: positive. It is filed as cell-based. The following applies: 24 hrs treatment, 0.2 μM to 100 μM. The procedure: The in vitro MNT assay is performed in CHO-K1 cells due to their stable and well-characterized karyotype, high sensitivity and suitability for a high content imaging approach. They have a basal spontaneous micronucleus frequency of 3-4%.
24 hrs after plating CHO-K1 cells are treated with test compounds for 24 hrs (in duplicates; fixed concentration ranges from 0.2 μM to 100 μM in 2-fold dilution steps). After a medium change cells are incubated for 24 hrs with Cytochalasin B to block cytokinesis and are then fixed and nuclei/micronuclei visualized with a DNA stain. Images are acquired with the Molecular Devices high content imagers IXU or IXM and are analyzed with the dedicated MetaXpress software micronucleus module. Criteria for scoring of micronuclei (MN) are the following: • diameter of the MN should be less than ⅓ of the main nucleus • MN should be separated from or marginally overlap with main nucleus (=no blebs) • MN should have similar staining as the main nucleus
At least 1000 binucleated cells are evaluated per treatment replicate. Mitomycin C is used as reference stimulator of micronucleus formation. Cytotoxicity is evaluated in parallel and defined by comparing total nuclei count in compound-treated samples to neutral control samples treated with vehicle only (1% DMSO) (100% cytotoxicity means all cells are dead or lost).
A test compound is regarded as POSITIVE if generation of micronuclei and exhibition of less than 60% cytotoxicity at the same concentration can be observed.
Compounds are scored only in the soluble concentration range.
Experimental data of the compounds shown in Table 1 in the MNT assay are shown in Table 2 below and classified in the following groups: […]

Sequence of ACSS2 (Q9NR19 whole entry): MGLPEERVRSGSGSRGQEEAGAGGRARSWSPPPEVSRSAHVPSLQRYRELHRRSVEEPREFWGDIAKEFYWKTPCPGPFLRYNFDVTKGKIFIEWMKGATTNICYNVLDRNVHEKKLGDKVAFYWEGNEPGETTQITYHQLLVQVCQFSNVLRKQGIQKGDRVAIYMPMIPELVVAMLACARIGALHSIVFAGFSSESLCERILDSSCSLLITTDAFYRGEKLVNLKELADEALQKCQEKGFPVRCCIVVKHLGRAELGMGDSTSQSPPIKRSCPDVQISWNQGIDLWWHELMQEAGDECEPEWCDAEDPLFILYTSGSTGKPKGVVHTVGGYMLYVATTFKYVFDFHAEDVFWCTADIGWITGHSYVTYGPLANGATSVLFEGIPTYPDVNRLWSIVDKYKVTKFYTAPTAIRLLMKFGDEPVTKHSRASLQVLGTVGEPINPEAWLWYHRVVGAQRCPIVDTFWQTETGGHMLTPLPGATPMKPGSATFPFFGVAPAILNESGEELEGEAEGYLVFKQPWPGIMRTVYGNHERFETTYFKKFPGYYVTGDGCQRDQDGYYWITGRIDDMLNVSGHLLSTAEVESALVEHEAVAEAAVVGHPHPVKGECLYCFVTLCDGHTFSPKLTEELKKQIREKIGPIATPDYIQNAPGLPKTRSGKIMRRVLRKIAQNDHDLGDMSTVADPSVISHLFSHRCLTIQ
Sequence of human rec ACSS2 (Q9NR19 whole entry): as above

Take `CCn1c(C(O)(c2ccccc2)c2ccncn2)nc2nc(OC)c(-c3nnn[nH]3)cc21` (racemic) [Compound 25, [1-ethyl-5-methoxy-6-(1H-1,2,3,4-tetrazol-5-yl)-1H-imidazo[4,5-b]pyridin-2-yl](phenyl)(pyrimidin-4-yl)methanol]: the IC50 on human rec ACSS2 and against ACSS2 was 1 to 10 nM in each case.

Regarding `CCn1c(C(O)(c2ccccc2)c2ccncc2)nc2nc(OC)c(-c3nnn[nH]3)cc21` (racemic) [Compound 43, [1-ethyl-5-methoxy-6-(1H-1,2,3,4-tetrazol-5-yl)-1H-imidazo[4,5-b]pyridin-2-yl](phenyl)(pyridin-4-yl)methanol], the IC50 at human rec ACSS2 lay in the range of 10 to 100 nM; against ACSS2 it was 100 to 10000 nM.

For the compound `CCn1c(C(O)(c2ccccc2)c2cccnc2)nc2nc(OC)c(-c3nnn[nH]3)cc21` (racemic) [Compound 44, [1-ethyl-5-methoxy-6-(1H-1,2,3,4-tetrazol-5-yl)-1H-imidazo[4,5-b]pyridin-2-yl](phenyl)(pyridin-3-yl)methanol], the values for the IC50 on human rec ACSS2 and on ACSS2 were 10 to 100 nM and 100 to 10000 nM, respectively.

Regarding `CCn1c(C(O)(c2ccccc2)c2ccc(OC(F)F)cc2)nc2nc(OC)c(-c3nnn[nH]3)cc21` (racemic) [Compound 53, [4-(difluoromethoxy)phenyl][1-ethyl-5-methoxy-6-(1H-1,2,3,4-tetrazol-5-yl)-1H-imidazo[4,5-b]pyridin-2-yl]phenylmethanol], the values for the IC50 at human rec ACSS2 and against ACSS2 were 1 to 10 nM and 10 to 100 nM, respectively.

`CCn1c(C(O)(c2ccccc2F)c2ccc(OC(F)F)cc2F)nc2nc(OC)c(-c3nnn[nH]3)cc21` (racemic) [Compound 54, [4-(difluoromethoxy)-2-fluorophenyl][1-ethyl-5-methoxy-6-(1H-1,2,3,4-tetrazol-5-yl)-1H-imidazo[4,5-b]pyridin-2-yl](2-fluorophenyl)methanol]: the IC50 on human rec ACSS2 and on ACSS2 was 1 to 10 nM each time.

Regarding `CCc1c(C(O)(c2ccccc2)c2ccccn2)nc2cc(Cl)c(-c3nnn[nH]3)cn12` (single isomer, unassigned) [Compound 7, [7-chloro-3-ethyl-6-(1H-tetrazol-5-yl)imidazo[1,2-a]pyridin-2-yl]-phenyl-(2-pyridyl)methanol], the MNT result in the series with CHO-K1 cells is “A”. The IC50 on human rec ACSS2 fell in the range of 10 to 100 nM.

`CCc1c(C(O)(c2ccccc2)c2ncccn2)nc2cc(OC)c(-c3nnn[nH]3)cn12` (single isomer, unassigned) [Compound 14, [3-Ethyl-7-methoxy-6-(1H-tetrazol-5-yl)-imidazo[1,2-a]pyridin-2-yl]-phenyl-pyrimidin-2-yl-methanol]: the results for the IC50 at human rec ACSS2 and against ACSS2 were 10 to 100 nM and 100 to 10000 nM, respectively.

As for `CCc1c(C(O)(c2ccccc2)c2ncccn2)nc2cc(OC)c(-c3nnn[nH]3)cn12` (single isomer, unassigned) [Compound 15, [3-Ethyl-7-methoxy-6-(1H-tetrazol-5-yl)-imidazo[1,2-a]pyridin-2-yl]-phenyl-pyrimidin-2-yl-methanol], the IC50 at human rec ACSS2 was 100 to 10000 nM.

Take `CCc1c(C(O)(c2ccccc2)c2ccn(C)n2)nc2cc(OC)c(-c3nnn[nH]3)cn12` (single isomer, unassigned) [Compound 17, [3-Ethyl-7-methoxy-6-(1H-tetrazol-5-yl)-imidazo[1,2-a]pyridin-2-yl]-(1-methyl-1H-pyrazol-3-yl)-phenyl-methanol]: the IC50 on human rec ACSS2 fell in the range of 100 to 10000 nM.

On to `CCc1c(C(O)(c2ccccc2)c2ccn(C)n2)nc2cc(OC)c(-c3nnn[nH]3)cn12` (single isomer, unassigned) [Compound 18, [3-Ethyl-7-methoxy-6-(1H-tetrazol-5-yl)-imidazo[1,2-a]pyridin-2-yl]-(1-methyl-1H-pyrazol-3-yl)-phenyl-methanol], for which the IC50 at human rec ACSS2 was in the range of 10 to 100 nM.

As for `CCn1c(C(O)(c2ccccc2)c2nccs2)nc2nc(OC)c(-c3nnn[nH]3)cc21` (single isomer, unassigned) [Compound 32, [1-ethyl-5-methoxy-6-(1H-1,2,3,4-tetrazol-5-yl)-1H-imidazo[4,5-b]pyridin-2-yl](phenyl)(1,3-thiazol-2-yl)methanol], the MNT entry in the series with CHO-K1 cells is “A”. Further, the IC50 on human rec ACSS2 lay within 0.01 to 1 nM.

As for `CCn1c(C(O)(c2ccccc2)c2ccccn2)nc2nc(OC)c(-c3nnn[nH]3)cc21` (single isomer, unassigned) [Compound 41, [1-ethyl-5-methoxy-6-(1H-1,2,3,4-tetrazol-5-yl)-1H-imidazo[4,5-b]pyridin-2-yl](phenyl)(pyridin-2-yl)methanol], the figures for the IC50 on human rec ACSS2 and at ACSS2 were 10 to 100 nM and 1 to 10 nM, respectively.

Regarding `CCc1cc2nc(C(O)(c3ccccc3)c3ccccc3)c(CC)n2cc1-c1nnn[nH]1` [Compound 1, [3,7-diethyl-6-(1 H-1,2,3,4-tetrazol-5-yl)imidazo[1,2-a]pyridin-2-yl]diphenylmethanol], the IC50 on human rec ACSS2 lay in the range of 1 to 10 nM.

Turning to `COc1nc2nc(C(O)(c3ccccc3)c3ccccc3)n(C)c2cc1-c1nnn[nH]1` [Compound 24, [5-methoxy-1-methyl-6-(1H-1,2,3,4-tetrazol-5-yl)-1H-imidazo[4,5-b]pyridin-2-yl]diphenylmethanol], on human rec ACSS2, the IC50 fell in the range of 0.01 to 1 nM.

With `CCn1c(C(O)(c2ccccc2C)c2ccccc2C)nc2nc(OC)c(-c3nnn[nH]3)cc21` [Compound 39, [1-ethyl-5-methoxy-6-(1H-1,2,3,4-tetrazol-5-yl)-1H-imidazo[4,5-b]pyridin-2-yl]bis(2-methylphenyl)methanol], the IC50 on human rec ACSS2 and against ACSS2 was 10 to 100 nM each time.

Consider `[2H]c1c([2H])c([2H])c(C(O)(c2c([2H])c([2H])c([2H])c([2H])c2[2H])c2nc3nc(OC)c(-c4nnn[nH]4)cc3n2CC)c([2H])c1[2H]` [Compound 63, [1-ethyl-5-methoxy-6-(1H-1,2,3,4-tetrazol-5-yl)-1H-imidazo[4,5-b]pyridin-2-yl]bis[(2,3,4,5,6-^2H5)phenyl]methanol], for which the IC50 at human rec ACSS2 was 0.01 to 1 nM; against ACSS2, 1 to 10 nM.

The term IC50 denotes the concentration needed to halve the response being measured.
